Measured values taken from patent publication US9090583B2, “Benzopyrone estrogen receptor regulator” (BEIJING SHENOGEN PHARMA GROUP LTD., priority 2010, dated 2015).
Values after ≈ are worked out from the molar mass of the structure shown. Where two headings read alike, the source gives them in different places.

How the values were obtained:
[1] = system: MCF7 cells; assay: CellTiter-Glo Luminescent Cell Viability Assay on ER-positive breast cancer MCF-7 cells; assay type: cell-based, human; settings: 72 hours, average ± standard deviation when tested more than 3 times, read-out: Inhibition of the viability of breast cancer cells, IC50
Summary of the method: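 MCF7 cells (DMEM, 10% FCS, 37 °C) treated 72 h with compound at 0–100 μM (0.3, 0.5, 1, 2, 3, 5, 10, 20, 30, 50, 100 μM). Viability measured by CellTiter-Glo luminescence.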

[2] = system: K562 cells; assay: CellTiter-Glo Luminescent Cell Viability Assay on leukemia K562 cells; assay type: cell-based, human; settings: 72 hours, read-out: Inhibition of the viability of leukemia cells, IC50
Description: A: In Vitro CellTiter-Glo® Luminescent Cell Viability Assay on Leukemia K562 Cells
(§1) The leukemia K562 cells were obtained from ATCC and maintained in IMDM and 10% fetal calf serum at 37° C., under 5% CO2 atmosphere. The cells were seeded on 96-well plate at a density of 6×10^3 cells per well. K562 cells were treated with a test compound dissolved in DMSO at the concentrations of zero, 0.3 μM, 0.5 μM, 1 μM, 2 μM, 3 μM, 5 μM, 10 μM, 20 μM, 30 μM, 50 μM and 100 μM for 72 hours. Treated cells were examined by CellTiter-Glo® Luminescent Cell Viability Assay Kit (Promega), and luminescence values were recorded with Envision.

[3] = system: Molt-4 cells; assay: CellTiter-Glo Luminescent Cell Viability Assay on leukemia Molt-4 cells; assay type: cell-based; settings: 72 hours, read-out: Inhibition of the viability of leukemia cells, IC50
Description: C: In Vitro CellTiter-Glo® Luminescent Cell Viability Assay on Leukemia Molt-4 Cells
as §1, with “leukemia Molt-4” for “leukemia K562”, “in RPMI-1640” for “in IMDM”, “well. […]” for “well. K562”

[4] = system: MDA-MB-231 cells; assay: CellTiter-Glo Luminescent Cell Viability Assay on ER-negative breast cancer MDA-MB-231 cells; assay type: cell-based; settings: average ± standard deviation when tested more than 3 times, read-out: Inhibition of the viability of breast cancer cells, IC50
Summary of the method: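 Cells seeded at 6×10^3 per well in DMEM with 10% FCS and exposed 72 h to compound at 0 to 100 μM (twelve concentrations, DMSO vehicle). Viability measured by CellTiter-Glo luminescence.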

[5] = system: HEC-1A cells; assay: CellTiter-Glo Luminescent assay on endometrial cancer HEC-1A cells; assay type: cell-based, human; settings: 72 hours, read-out: Inhibition of the viability of endometrial cancer cells, IC50
Description: CellTiter-Glo® Luminescent Assay to Measure the Inhibitory Activity of the Compounds on In Vitro Growth of Endometrial Cancer HEC-1A Cells
as §1, with “HEC-1A cells are endometrial cancer cell lines only expressing ER-36. Human endometrial cancer HEC-1A” for “The leukemia K562”, “DMEM” for “IMDM”, “HEC-1A” for “K562”, “5” for “5 μM, 10”

[6] = system: HL-60 cells; assay: CellTiter-Glo Luminescent Cell Viability Assay on leukemia HL-60 cells; assay type: cell-based, human; settings: 72 hours, read-out: Inhibition of the viability of leukemia cells, IC50
Description: B: In Vitro CellTiter-Glo® Luminescent Cell Viability Assay on Leukemia HL-60 Cells
as §1, with “HL-60” for “K562”

[7] = molecular target: T1, ER-α36 (Homo sapiens, UniProt P03372); assay: Regulation of ER-α36 protein expression in HEC-1A cells (Western blot); assay type: cell-based; settings: serum-depleted HEC-1A cells; 1, 10, 50 and 100 nM; 24 and 48 hours; effect above the concentration of 50 nM
T1 construct: endogenous in cells; host or cells: HEC-1A human endometrial cancer cells
T1 sequence (P03372 1-310 isoform P03372-4): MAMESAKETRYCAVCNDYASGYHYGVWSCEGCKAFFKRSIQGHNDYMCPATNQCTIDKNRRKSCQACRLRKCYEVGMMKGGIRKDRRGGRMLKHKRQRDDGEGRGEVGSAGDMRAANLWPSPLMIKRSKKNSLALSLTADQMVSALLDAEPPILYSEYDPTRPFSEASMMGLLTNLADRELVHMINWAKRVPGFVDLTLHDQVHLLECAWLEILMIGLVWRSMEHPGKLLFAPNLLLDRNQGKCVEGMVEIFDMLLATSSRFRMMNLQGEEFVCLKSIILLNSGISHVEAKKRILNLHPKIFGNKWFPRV
Description: Taking endometrial cancer HEC-1A cells as an example, serum-depleted HEC-1A cells were treated with compounds at concentrations of 1, 10, 50 and 100 nM for 24 hours and 48 hours. The treated cells were washed with PBS and lysed with lysis buffer (a mixture of 1*PBS (pH7.4), 1% NP-40, 0.7 mMEDTA, and protease inhibitor from Roche). The lysates were boiled for 5 minutes in a SDS gel loading buffer (25 mM Tris-Cl pH 6.8; 10% SDS; 2% glycerol; 20% β-mercaptoethanol; 0.01% bromophenol blue) and separated on a 10% SDS-PAGE gel. After electrophoresis, the proteins were transferred onto PVDF membrane (Millipore Transfer Membrane). The membrane was probed with Rabbit anti-ER36 antibody which is specific to 20 amino acid polypeptides at C-terminus of ER-α36. Then the membrane was incubated with an HRP-conjugated secondary antibody and visualized with ECL detection reagents.

[8] = system: Hep3B2.1-7 cells; assay: MTT assay, in vitro growth of liver cancer Hep3B2.1-7 cells; assay type: cell-based; settings: 72 hours
Description: The liver cancer Hep3B2.1-7 cells were obtained from ATCC. Cells were incubated in 1640 culture medium with 5% fetal calf serum and 100 U/ml double-antibody in a cell incubator at 37° C., 5% CO2 atmosphere and passaged via conventional methods. The sample was dissolved in DMSO, formulated into 50 mg/ml stocking solution, and stored at 4° C. The test solutions at 50, 25, 12.5 and 6.25 μg/ml were formulated with culture medium immediately before use.
The adherent cells were digested with cell digestive solution, and then the exfoliated cells were collected and counted. The cell suspension was formulated with 1640 culture medium containing 5% fetal calf serum (5.0×10^4/ml). The cell suspension was seeded on 96-well plate with 100 μl/well, and maintained in a cell incubator at 37° C., 5% CO2 atmosphere for 24 hours. After that, the compounds at various concentrations were added, where solvent was taken as negative control and Taxol as positive control. 10 μl MTT (5 mg/ml) was added after 72 hours. The supernatant was removed after cultivation for 3 hours more, 150 μl DMSO was added and the formazan was dissolved on shaking. OD values were measured at 570 nm after homogeneous mixing, and inhibition rate and IC50 values were calculated based on the mean of OD values from 3 wells.

[9] = system: CoC1 cells; assay: CellTiter-Glo Luminescent Cell Viability Assay on ovary cancer CoC1 cells; assay type: cell-based; settings: 72 hours, read-out: Inhibition of the viability of ovary cancer cells, IC50
Description: B: In Vitro CellTiter-Glo® Luminescent Cell Viability Assay on Ovary Cancer CoC1 Cells
as §1, with “ovary cancer CoC1” for “leukemia K562”, “Cancer hospital, Chinese Academy of Medical Sciences” for “ATCC”, “RPMI-1640” for “IMDM”, “CoC1” for “K562”, “10” for “10 μM, 20”

Row | Compound | IC50 [1] [µM] | IC50 [2] [µM] | IC50 [3] [µM] | IC50 ([4]; 72 hours) [µM] | IC50 [5] [µM] | IC50 [6] [µM] | expression of ER-36 in cells [7] | IC50 ([4]; Homo sapiens, MDA-MB-231, 72 h) [µM] | IC50 ([8]; read-out: Inhibition on liver cancer cells, IC50) [µg/mL] | Inhibition on liver cancer cells, IC50 [8] [µg/mL] | IC50 [9] [µM]
1 | COc1c(-c2ccc(C(F)(F)F)c(F)c2)oc2c(CC=C(C)C)c(O)c(CC=C(C)C)c(O)c2c1=O [Compound 6, 2-(3-fluoro-4-trifluoromethylphenyl)-5,7-dihydroxy-3-methoxy-6,8-di(3-methyl-2-butylene-1-yl)-4H-benzopyran-4-one] | 5.14 ± 0.47 | > 100 | > 100 | 7.06 ± 2.13 | 4.02 | > 100 | – | – | – | – | –
2 | COc1c(-c2ccc(C(F)(F)F)cc2)oc2c(CC=C(C)C)c(O)c(CC=C(C)C)c(O)c2c1=O [Compound 15, 2-(4-trifluoromethylphenyl)-5,7-dihydroxy-3-methoxy-6,8-di(3-methyl-2-butylene-1-yl)-4H-benzopyran-4-one] | 8.28 ± 2.2 | 12.4 | 13.2 | 9.91 ± 0.11 | 8.35 | 15.7 | – | – | – | 0.00138 | –
3 | 2-(-fluoro-4-chlorophenyl)-5,7-dihydroxy-3-methoxy-6,8-di(3-methyl-2-buten-1-yl)-4H-benzopyran-4-one [Compound 5] | 6.73 ± 1.58 | 12 | 9.13 | 7.03 ± 1.06 | 7.14 | 8.96 | – | – | – | 1.45 | 6.91

Further lines, results first:

Row | IC50 [1] [µM] | IC50 [2] [µM] | IC50 [3] [µM] | IC50 ([4]; 72 hours) [µM] | IC50 [5] [µM] | IC50 [6] [µM] | expression of ER-36 in cells [7] | IC50 ([4]; Homo sapiens, MDA-MB-231, 72 h) [µM] | IC50 ([8]; read-out: Inhibition on liver cancer cells, IC50) [µg/mL] | Inhibition on liver cancer cells, IC50 [8] [µg/mL] | IC50 [9] [µM] | Compound
4 | 12.03 ± 0.09 | > 100 | 14.2 | 11.9 ± 0.4 | 13.8 | > 100 | – | – | – | – | – | COc1c(-c2ccc3nccnc3c2)oc2c(CC=C(C)C)c(O)c(CC=C(C)C)c(O)c2c1=O [Compound 18, 2-(quinoxalin-6-yl)-5,7-dihydroxy-3-methoxy-6,8-di(3-methyl-2-butylene-1-yl)-4H-benzopyran-4-one]
5 | – | – | – | – | – | – | dramatically reduced | 1.62 | 0.0144 (≈ 0.0303 µM) | – | – | CC(C)=CCc1c(O)c(CC=C(C)C)c2oc(-c3ccc(C(F)(F)F)cc3)c(O)c(=O)c2c1O [Compound 98, 2-(4-trifluoromethylphenyl)-3,5,7-trihydroxy-6,8-di(3-methyl-2-buten-1-yl)-4H-benzopyran-4-one]
